We go through 70 molecules from patent US20120165304A1, “6,7,8,9-Tetrahydro-5H-1,4,7,10a-tetraaza-cyclohept[f]indene derivatives, pharmaceutical compositions containing these compounds, their use and processes for preparing them” (BOEHRINGER INGELHEIM INTERNATIONAL GMBH, priority 2008, published 2012).

Structures are written as SMILES.

The target in the assay is human 5-HT2C receptor (Homo sapiens, UniProt P28335, I156V/I160V/N158S). As to the kind of experiment: cell-based.
human 5-HT2C receptor, sequence (P28335 33-458 I156V/N158S/I160V limits assumed): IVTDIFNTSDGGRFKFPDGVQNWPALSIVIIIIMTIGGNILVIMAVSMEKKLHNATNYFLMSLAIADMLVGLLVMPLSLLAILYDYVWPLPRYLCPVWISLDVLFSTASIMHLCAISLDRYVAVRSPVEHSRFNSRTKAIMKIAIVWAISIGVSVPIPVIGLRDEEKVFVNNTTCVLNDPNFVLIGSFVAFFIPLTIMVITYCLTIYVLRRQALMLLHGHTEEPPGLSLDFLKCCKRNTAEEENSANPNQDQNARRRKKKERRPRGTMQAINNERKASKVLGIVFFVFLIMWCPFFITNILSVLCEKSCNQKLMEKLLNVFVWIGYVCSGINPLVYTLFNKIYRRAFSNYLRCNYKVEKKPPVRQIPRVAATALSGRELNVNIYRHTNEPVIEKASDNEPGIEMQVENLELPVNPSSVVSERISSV
The molecule `CN(C)CCNC(=O)C1CN(c2c3c(nc4ccnn24)CCNCC3)C1` [Example 37.74] registered an EC50 of 29 nM. To `Cn1c(=O)ccc2c(OC3CN(c4c5c(nc6ccnn46)CCNCC5)C3)cccc21` [Example 35.1] belongs 41 nM; to `CN(CCc1cccc(Cl)c1)C(=O)C1CN(c2c3c(nc4ccnn24)CCNCC3)C1` [Example 31.59], 147 nM.

The molecule `Cc1cnn2c(N3CC(C(=O)N4CCc5cc(F)ccc54)C3)c3c(nc12)CCNCC3` [Example 31.245] registered an EC50 of 26 nM. As to `CCCn1c(C2CN(c3c4c(nc5ccnn35)CCNCC4)C2)nc2ccccc21` [Example 34.35], the response was half-maximal at 472 nM (EC50). To `Cc1cccc2c1CCN2C(=O)C1CN(c2c3c(nc4ccnn24)CCNCC3)C1` [Example 31.175] belongs 64 nM; to `CC1(C)CC1CNC(=O)C1CN(c2c3c(nc4ccnn24)CCNCC3)C1` (stereo not shown) [Example 37.110], 255 nM; to `Cc1ccc(OC2CN(c3c4c(nc5ccnn35)CCNCC4)C2)cc1` [Example 35.45], 129 nM. To `CN1CCCN(C(=O)C2CN(c3c4c(nc5ccnn35)CCNCC4)C2)CC1` [Example 37.10] belongs 2 nM. In turn, `CN(Cc1ccc(C(C)(C)C)cc1)C(=O)C1CN(c2c3c(nc4ccnn24)CCNCC3)C1` [Example 31.162] had an EC50 of 187 nM. To `O=C(C1CN(c2c3c(nc4ccnn24)CCNCC3)C1)N1CC[C@@H](c2ccccc2)C1` [Example 31.223] belongs 39 nM. `O=C(C1CCCC1)N1CCN(C(=O)C2CN(c3c4c(nc5ccnn35)CCNCC4)C2)CC1` [Example 37.87] displayed an EC50 of 9 nM.

As for `O=C(C1CN(c2c3c(nc4ccnn24)CCNCC3)C1)N1CCC(N2CCOCC2)CC1` [Example 37.19], the EC50 is 5 nM. `O=C(Nc1ccccc1)C1CN(c2c3c(nc4ccnn24)CCNCC3)C1` [Example 31.16] gave a concentration for a half-maximal effect (EC50) of 2390 nM. Next, `O=C(C1CN(c2c3c(nc4ccnn24)CCNCC3)C1)N1CCC(O)(c2ccc(C(F)(F)F)cc2)CC1` [Example 31.227]: 92 nM; `CN1CCc2nc3ccnn3c(N3CC(C(=O)N[C@H]4CC[C@H](N(C)C)CC4)C3)c2CC1` [Example 36.16]: 282 nM; `COCCN(C)C(=O)C1CN(c2c3c(nc4ccnn24)CCNCC3)C1` [Example 31.3]: 885 nM. Next, `O=C(C1CN(c2c3c(nc4ccnn24)CCNCC3)C1)N1CCC(c2ccccc2F)CC1` [Example 31.113]: 27 nM; `CN1CCc2nc3ccnn3c(N3CC(C(=O)NC4CCOCC4)C3)c2CC1` [Example 36.35]: 114 nM. Regarding `CCCN(C)C(=O)C1CN(c2c3c(nc4ccnn24)CCNCC3)C1` [Example 31.66], a half-maximal response (EC50) required 360 nM. The molecule `C[C@@H](c1ccccc1)N(C)C(=O)C1CN(c2c3c(nc4ccnn24)CCNCC3)C1` [Example 31.91] returned a 50% effective concentration (EC50) of 2010 nM. With `CN(C(=O)C1CN(c2c3c(nc4ccnn24)CCNCC3)C1)C1CCCC1` [Example 31.12], a half-maximal effect (EC50) was put at 820 nM. To `CN(C)[C@H]1CC[C@H](NC(=O)C2CN(c3c4c(nc5ccnn35)CCNCC4)C2)CC1` [Example 37.98] belongs 25 nM; to `CCCCn1c(C2CN(c3c4c(nc5ccnn35)CCNCC4)C2)nc2ccccc21` [Example 34.26], 1150 nM. `CN(c1ccccc1)C1CCN(C(=O)C2CN(c3c4c(nc5ccnn35)CCNCC4)C2)CC1` [Example 37.46] came in with an EC50 of 2 nM. `CC(C)=CCN1CCC(NC(=O)C2CN(c3c4c(nc5ccnn35)CCNCC4)C2)CC1` [Example 43, 1-(6,7,8,9-Tetrahydro-5H-1,4,7,10a-tetraaza-cyclohept[f]inden-10-yl)-azetidine-3-carboxylic acid [1-(3-methyl-but-2-enyl)-piperidin-4-yl]-amide] registered an EC50 of 8 nM.

As for `C#CCCNC(=O)C1CN(c2c3c(nc4ccnn24)CCNCC3)C1` [Example 37.48], the EC50 was determined as 141 nM. To `CN1CCc2nc3ccnn3c(N3CC(C(=O)N4CCN(C(=O)C5CCCCC5)CC4)C3)c2CC1` [Example 36.22] belongs 181 nM; to `FC1(F)CN(c2c3c(nc4ccnn24)CCNCC3)C1` [Example 1.4], 2420 nM. As to `Cc1cnn2c(N3CC(C(=O)N4CCc5ccccc54)C3)c3c(nc12)CCNCC3` [Example 31.236], a half-maximal effect (EC50) was put at 31 nM. Next, `O=C(C1CCCCC1)N1CCN(C(=O)C2CN(c3c4c(nc5ccnn35)CCNCC4)C2)CC1` [Example 37.101]: 70 nM. With `CC(=O)N1CCN(C(=O)C2CN(c3c4c(nc5ccnn35)CCN(C)CC4)C2)CC1` [Example 36.52], the response was half-maximal at 181 nM (EC50).

With `CC(C)C1CCN(C(=O)C2CN(c3c4c(nc5ccnn35)CCN(C)CC4)C2)CC1` [Example 36.20], the EC50 worked out at 63 nM. To `CN(C)C(=O)[C@H]1CCN(c2c3c(nc4ccnn24)CCNCC3)C1` [Example 1.63] belongs 2680 nM; to `COc1cccc(OC2CN(c3c4c(nc5ccnn35)CCNCC4)C2)c1Cl` [Example 35.33], 90 nM; to `CC(C)(C)NC1CCN(C(=O)C2CN(c3c4c(nc5ccnn35)CCNCC4)C2)CC1` [Example 37.22], 2 nM. Consider `CN1CCc2nc3ccnn3c(N3CC(C(=O)N4CCNC(=O)C4)C3)c2CC1` [Example 36.14], for which the midpoint of the response, the EC50, lay at 364 nM. To `CC1CCCN(C(=O)C2CN(c3c4c(nc5ccnn35)CCNCC4)C2)C1` (stereo not shown) [Example 31.1] belongs 89 nM; to `Fc1ccccc1OCC1CN(c2c3c(nc4ccnn24)CCNCC3)C1` [Example 15.2], 3 nM.

As to `COc1ccc2cc(OC3CN(c4c5c(nc6ccnn46)CCNCC5)C3)ccc2c1` [Example 35.13], the 50% effective concentration (EC50) stood at 1360 nM. Next, `CN(CCc1ccccc1)C(=O)C1CN(c2c3c(nc4ccnn24)CCNCC3)C1` [Example 31.61]: 176 nM; `CC(C)c1ccccc1OC1CCN(C(=O)C2CN(c3c4c(nc5ccnn35)CCNCC4)C2)CC1` [Example 31.219]: 124 nM; `COc1ccc2c(c1)CCN2C(=O)C1CN(c2c3c(nc4ccnn24)CCNCC3)C1` [Example 31.218]: 40 nM. To `C[C@@H]1CN(C(=O)C2CN(c3c4c(nc5ccnn35)CCN(C)CC4)C2)C[C@H](C)O1` [Example 36.21] belongs 161 nM; to `O=C(C1CN(c2c3c(nc4ccnn24)CCNCC3)C1)N1CCC(Oc2ccccn2)CC1` [Example 31.230], 54 nM; to `O=C(NCCN1CCCCC1)C1CN(c2c3c(nc4ccnn24)CCNCC3)C1` [Example 37.81], 40 nM. To `CCN(C(=O)C1CN(c2c3c(nc4ccnn24)CCNCC3)C1)C(C)C` [Example 31.11] belongs 306 nM; to `O=C(C1CN(c2c3c(nc4ccnn24)CCNCC3)C1)N1CCCC(c2ccccc2)CC1` (stereo not shown) [Example 31.152], 77 nM. In turn, `CC1CNCCc2c1nc1ccnn1c2N1CC(C(=O)N2CCC(C)(C)C2)C1` (stereo not shown) [Example 42, (3,3-Dimethyl-pyrrolidin-1-yl)-[1-(5-methyl-6,7,8,9-tetrahydro-5H-1,4,7,10a-tetraaza-cyclohept[f]inden-10-yl)-azetidin-3-yl]-methanone] had an EC50 of 31 nM. To `O=C(C1CN(c2c3c(nc4ccnn24)CCNCC3)C1)N1CCC(O)(c2cc(F)cc(F)c2)CC1` [Example 31.195] belongs 7 nM.

The molecule `CC1(C)CCCN(C(=O)C2CN(c3c4c(nc5ccnn35)CCNCC4)C2)C1` [Example 31.30] registered an EC50 of 338 nM. Consider `CCN1CCCN(C(=O)C2CN(c3c4c(nc5ccnn35)CCN(C)CC4)C2)CC1` [Example 36.50], for which a half-maximal effect (EC50) was put at 81 nM.

Regarding `Fc1ccc(Cl)c(OCC2CN(c3c4c(nc5ccnn35)CCNCC4)C2)c1` [Example 15.15], the concentration giving a half-maximal response (EC50) is 2 nM. `CC(=O)NC1CCN(C(=O)C2CN(c3c4c(nc5ccnn35)CCNCC4)C2)C1` (stereo not shown) [Example 37.27]: the midpoint of the response, the EC50, lay at 14 nM. As to `CN1CCc2nc3ccnn3c(N3CC(C(=O)N4CCN(C5CCCC5)CC4)C3)c2CC1` [Example 36.13], a half-maximal response (EC50) required 114 nM.

For the molecule `Fc1ccc(C(F)(F)F)cc1OC1CN(c2c3c(nc4ccnn24)CCNCC3)C1` [Example 35.36], the response was half-maximal at 90 nM (EC50). Next, `FC(F)(F)Oc1ccccc1OC1CN(c2c3c(nc4ccnn24)CCNCC3)C1` [Example 35.18]: 636 nM; `CC(C)(C)N1CCC2(CCN(C(=O)C3CN(c4c5c(nc6ccnn46)CCNCC5)C3)CC2)C1=O` [Example 31.150]: 240 nM.

In turn, `O=C(C1CN(c2c3c(nc4c(Br)cnn24)CCNCC3)C1)N1CCC2(CCCCC2)C1` [Example 31.134] returned a concentration giving a half-maximal response (EC50) of 117 nM. To `CN(C(=O)C1CN(c2c3c(nc4ccnn24)CCNCC3)C1)C1CCCc2ccccc21` (stereo not shown) [Example 31.171] belongs 967 nM; to `c1cnc2ccc(OC3CN(c4c5c(nc6ccnn46)CCNCC5)C3)cc2c1` [Example 35.43], 207 nM; to `Cc1coc(C2CN(c3c4c(nc5ccnn35)CCNCC4)C2)n1` [Example 13, 10-[3-(4-Methyl-oxazol-2-yl)-azetidin-1-yl]-6,7,8,9-tetrahydro-5H-1,4,7,10a-tetraaza-cyclohepta[f]indene], 628 nM. `CN(Cc1ccc(Br)cc1)C(=O)C1CN(c2c3c(nc4ccnn24)CCNCC3)C1` [Example 31.80] yielded an EC50 of 30 nM. Next, `CC(=O)N1CCCN(C(=O)C2CN(c3c4c(nc5ccnn35)CCNCC4)C2)CC1` [Example 37.102]: 67 nM; `CCC(C)CNC(=O)C1CN(c2c3c(nc4ccnn24)CCNCC3)C1` (stereo not shown) [Example 37.86]: 41 nM; `O=C(C1CCCN(c2c3c(nc4ccnn24)CCNCC3)C1)N1CCCCC1` (stereo not shown) [Example 1.61]: 4710 nM. To `CC(C)CN1CCN(C(=O)C2CN(c3c4c(nc5ccnn35)CCNCC4)C2)CC1` [Example 37.15] belongs 3 nM; to `CN(C)CCCN(C)C(=O)C1CN(c2c3c(nc4ccnn24)CCN(C)CC3)C1` [Example 36.55], 87 nM; to `O=C(NC1(c2ccc(F)cc2)CC1)C1CN(c2c3c(nc4ccnn24)CCNCC3)C1` [Example 31.93], 786 nM. Next, `O=C(C1CN(c2c3c(nc4ccnn24)CCNCC3)C1)N1CCCC2CCCCC21` (stereo not shown) [Example 31.127]: 1280 nM.
